Assay results from US20230201217A1 (priority 2019, published 2023).

Key:
cynomolgus monkeys = assay: 14-day nasogastric gavage GLP toxicity study in cynomolgus monkeys; assay type: in vivo, cynomolgus monkey
Excerpt: Assessments of neurobehavioral effects and general toxicity were based on mortality, functional observational battery (FOB) evaluations, clinical observations, body weight, and body temperature; ophthalmoscopic, electrocardiographic examinations; and anatomic and clinical pathology. The anatomical pathology evaluations included histopathology of a full list of tissues from all animals and a comprehensive evaluation of the central nervous system (including selected peripheral nerves) utilizing whole body perfusion and special stains. Bone marrow smears from all animals were evaluated microscopically. Complete differentials and myeloid-erythroid (ME) ratios were performed. Toxicokinetic assessment was conducted for the test article and metabolites.

CYP2C9 = CYP2C9 (Homo sapiens, UniProt P11712); details: recombinant enzyme
Sequence of CYP2C9 (P11712 whole entry): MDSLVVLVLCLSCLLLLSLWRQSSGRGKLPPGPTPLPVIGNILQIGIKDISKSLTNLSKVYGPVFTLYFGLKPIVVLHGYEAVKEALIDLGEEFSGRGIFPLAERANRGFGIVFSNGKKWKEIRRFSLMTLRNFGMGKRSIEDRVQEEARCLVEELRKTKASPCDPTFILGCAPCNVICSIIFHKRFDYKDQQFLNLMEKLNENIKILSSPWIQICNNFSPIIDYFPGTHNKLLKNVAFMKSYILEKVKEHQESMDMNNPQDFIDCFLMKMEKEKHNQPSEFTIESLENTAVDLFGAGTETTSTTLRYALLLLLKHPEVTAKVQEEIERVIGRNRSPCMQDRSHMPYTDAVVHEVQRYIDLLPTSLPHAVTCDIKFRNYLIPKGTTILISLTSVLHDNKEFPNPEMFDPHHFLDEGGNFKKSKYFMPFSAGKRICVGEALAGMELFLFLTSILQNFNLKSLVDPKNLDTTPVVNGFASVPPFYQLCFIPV
Experimental: (§1) Control incubations were performed for each assay with appropriate positive inhibitory controls.

CYP2C19 = CYP2C19 (Homo sapiens, UniProt P33261); details: recombinant enzyme
Sequence of CYP2C19 (P33261 whole entry): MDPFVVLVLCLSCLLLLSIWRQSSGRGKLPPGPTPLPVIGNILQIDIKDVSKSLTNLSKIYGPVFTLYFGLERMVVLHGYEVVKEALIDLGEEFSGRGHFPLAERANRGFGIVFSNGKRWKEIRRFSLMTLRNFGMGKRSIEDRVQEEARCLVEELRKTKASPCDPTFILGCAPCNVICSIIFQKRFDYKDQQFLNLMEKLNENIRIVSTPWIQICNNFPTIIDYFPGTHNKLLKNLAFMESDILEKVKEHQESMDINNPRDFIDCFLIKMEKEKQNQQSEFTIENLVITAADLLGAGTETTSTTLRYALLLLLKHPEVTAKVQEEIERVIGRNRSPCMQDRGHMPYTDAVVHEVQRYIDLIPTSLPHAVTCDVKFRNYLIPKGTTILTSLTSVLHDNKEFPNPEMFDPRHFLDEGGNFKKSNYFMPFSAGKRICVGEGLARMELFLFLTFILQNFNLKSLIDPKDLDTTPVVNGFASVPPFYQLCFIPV
Experimental: as §1

[1] = 400/300 mg/kg/day F, 3 examined
[2] = 400/300 mg/kg/day M, 4 examined

COCCC1CC2CN3CCc4c([nH]c5ccccc45)C(C(=O)OC)(C2)C13.Cl (stereo not shown) [18-MC HCl, 18-Methoxycoronaridine hydrochloride]
1: Liver: Hypertrophy, hepatocellular, panlobular, minimal; number with observation (cynomolgus monkeys; 150 mg/kg/day F) | Thymus: Depletion, lymphoid, cortex, moderate; number with observation (cynomolgus monkeys; 150 mg/kg/day F) | Bone marrow, femur: Depletion, mixed, minimal; number with observation (cynomolgus monkeys; 150 mg/kg/day M) | Bone marrow, rib: Depletion, mixed, minimal; number with observation (cynomolgus monkeys; 150 mg/kg/day M) | Bone marrow, rib: Depletion, mixed; number with observation (cynomolgus monkeys; 150 mg/kg/day M) | Bone marrow, sternum: Depletion, mixed, minimal; number with observation (cynomolgus monkeys; 150 mg/kg/day M) | Bone marrow, sternum: Depletion, mixed; number with observation (cynomolgus monkeys; 150 mg/kg/day M) | Thymus: Depletion, lymphoid, cortex, minimal; number with observation (cynomolgus monkeys; 150 mg/kg/day M) | Bone marrow, femur: Depletion, mixed; number with observation (cynomolgus monkeys; 150 mg/kg/day M, 3 examined) | Bone marrow, femur: Depletion, mixed, minimal; number with observation (cynomolgus monkeys; 400/300 mg/kg/day F) | Bone marrow, rib: Depletion, mixed, mild; number with observation (cynomolgus monkeys; 400/300 mg/kg/day F) | Bone marrow, rib: Depletion, mixed; number with observation (cynomolgus monkeys; 400/300 mg/kg/day F) | Bone marrow, sternum: Depletion, mixed, mild; number with observation (cynomolgus monkeys; 400/300 mg/kg/day F) | Bone marrow, sternum: Depletion, mixed; number with observation (cynomolgus monkeys; 400/300 mg/kg/day F) | Thymus: Depletion lymphoid, generalized, moderate; number with observation (cynomolgus monkeys; 400/300 mg/kg/day F) | Bone marrow, femur: Depletion, mixed; number with observation (cynomolgus monkeys; [1]) | Bone marrow, femur: Depletion, mixed, mild; number with observation (cynomolgus monkeys; 400/300 mg/kg/day M) | Bone marrow, femur: Depletion, mixed, moderate; number with observation (cynomolgus monkeys; 400/300 mg/kg/day M) | Bone marrow, rib: Depletion, mixed, mild; number with observation (cynomolgus monkeys; 400/300 mg/kg/day M) | Bone marrow, rib: Depletion, mixed, moderate; number with observation (cynomolgus monkeys; 400/300 mg/kg/day M) | Bone marrow, sternum: Depletion, mixed, mild; number with observation (cynomolgus monkeys; 400/300 mg/kg/day M) | Bone marrow, sternum: Depletion, mixed, moderate; number with observation (cynomolgus monkeys; 400/300 mg/kg/day M) | Thymus: Depletion lymphoid, generalized, mild; number with observation (cynomolgus monkeys; 400/300 mg/kg/day M)
0: Bone marrow, rib: Depletion, mixed, mild; number with observation (cynomolgus monkeys; 150 mg/kg/day F) | Bone marrow, rib: Depletion, mixed, minimal; number with observation (cynomolgus monkeys; 150 mg/kg/day F) | Bone marrow, rib: Depletion, mixed, moderate; number with observation (cynomolgus monkeys; 150 mg/kg/day F) | Bone marrow, rib: Depletion, mixed; number with observation (cynomolgus monkeys; 150 mg/kg/day F) | Bone marrow, sternum: Depletion, mixed, mild; number with observation (cynomolgus monkeys; 150 mg/kg/day F) | Bone marrow, sternum: Depletion, mixed, minimal; number with observation (cynomolgus monkeys; 150 mg/kg/day F) | Bone marrow, sternum: Depletion, mixed, moderate; number with observation (cynomolgus monkeys; 150 mg/kg/day F) | Bone marrow, sternum: Depletion, mixed; number with observation (cynomolgus monkeys; 150 mg/kg/day F) | Thymus: Depletion lymphoid, generalized, mild; number with observation (cynomolgus monkeys; 150 mg/kg/day F) | Thymus: Depletion lymphoid, generalized, moderate; number with observation (cynomolgus monkeys; 150 mg/kg/day F) | Thymus: Depletion lymphoid, generalized; number with observation (cynomolgus monkeys; 150 mg/kg/day F) | Thymus: Depletion, lymphoid, cortex, minimal; number with observation (cynomolgus monkeys; 150 mg/kg/day F) | Bone marrow, femur: Depletion, mixed; number with observation (cynomolgus monkeys; 150 mg/kg/day F, 3 examined) | Bone marrow, femur: Depletion, mixed, mild; number with observation (cynomolgus monkeys; 150 mg/kg/day M) | Bone marrow, femur: Depletion, mixed, moderate; number with observation (cynomolgus monkeys; 150 mg/kg/day M) | Bone marrow, rib: Depletion, mixed, mild; number with observation (cynomolgus monkeys; 150 mg/kg/day M) | Bone marrow, rib: Depletion, mixed, moderate; number with observation (cynomolgus monkeys; 150 mg/kg/day M) | Bone marrow, sternum: Depletion, mixed, mild; number with observation (cynomolgus monkeys; 150 mg/kg/day M) | Bone marrow, sternum: Depletion, mixed, moderate; number with observation (cynomolgus monkeys; 150 mg/kg/day M) | Liver: Hypertrophy, hepatocellular, panlobular, minimal; number with observation (cynomolgus monkeys; 150 mg/kg/day M) | Thymus: Depletion lymphoid, generalized, mild; number with observation (cynomolgus monkeys; 150 mg/kg/day M) | Thymus: Depletion lymphoid, generalized, moderate; number with observation (cynomolgus monkeys; 150 mg/kg/day M) | Thymus: Depletion lymphoid, generalized; number with observation (cynomolgus monkeys; 150 mg/kg/day M) | Thymus: Depletion, lymphoid, cortex, moderate; number with observation (cynomolgus monkeys; 150 mg/kg/day M) | Bone marrow, femur: Depletion, mixed, mild; number with observation (cynomolgus monkeys; 400/300 mg/kg/day F) | Bone marrow, femur: Depletion, mixed, moderate; number with observation (cynomolgus monkeys; 400/300 mg/kg/day F) | Bone marrow, rib: Depletion, mixed, minimal; number with observation (cynomolgus monkeys; 400/300 mg/kg/day F) | Bone marrow, rib: Depletion, mixed, moderate; number with observation (cynomolgus monkeys; 400/300 mg/kg/day F) | Bone marrow, sternum: Depletion, mixed, minimal; number with observation (cynomolgus monkeys; 400/300 mg/kg/day F) | Bone marrow, sternum: Depletion, mixed, moderate; number with observation (cynomolgus monkeys; 400/300 mg/kg/day F) | Liver: Hypertrophy, hepatocellular, panlobular, minimal; number with observation (cynomolgus monkeys; 400/300 mg/kg/day F) | Thymus: Depletion, lymphoid, cortex, mild; number with observation (cynomolgus monkeys; 400/300 mg/kg/day F) | Thymus: Depletion, lymphoid, cortex, minimal; number with observation (cynomolgus monkeys; 400/300 mg/kg/day F) | Thymus: Depletion, lymphoid, cortex, moderate; number with observation (cynomolgus monkeys; 400/300 mg/kg/day F) | Thymus: Depletion, lymphoid, cortex; number with observation (cynomolgus monkeys; [1]) | Bone marrow, femur: Depletion, mixed, minimal; number with observation (cynomolgus monkeys; 400/300 mg/kg/day M) | Bone marrow, rib: Depletion, mixed, minimal; number with observation (cynomolgus monkeys; 400/300 mg/kg/day M) | Bone marrow, sternum: Depletion, mixed, minimal; number with observation (cynomolgus monkeys; 400/300 mg/kg/day M) | Liver: Hypertrophy, hepatocellular, panlobular, minimal; number with observation (cynomolgus monkeys; 400/300 mg/kg/day M) | Thymus: Depletion, lymphoid, cortex, mild; number with observation (cynomolgus monkeys; 400/300 mg/kg/day M) | Thymus: Depletion, lymphoid, cortex, minimal; number with observation (cynomolgus monkeys; 400/300 mg/kg/day M) | Thymus: Depletion, lymphoid, cortex, moderate; number with observation (cynomolgus monkeys; 400/300 mg/kg/day M) | Thymus: Depletion, lymphoid, cortex; number with observation (cynomolgus monkeys; [2])
one male died: mortality (cynomolgus monkeys; 400 mg/kg, first day of dosing)
-0.28 kg: mean cumulative body gain (Days 1-14) (cynomolgus monkeys; 150 mg/kg/day M)
3: Liver: Hypertrophy, hepatocellular, panlobular; number with observation (cynomolgus monkeys; 150 mg/kg/day F, 3 examined) | Thymus: Depletion, lymphoid, cortex; number with observation (cynomolgus monkeys; 150 mg/kg/day F, 3 examined) | Liver: Hypertrophy, hepatocellular, panlobular, mild; number with observation (cynomolgus monkeys; 150 mg/kg/day M) | Liver: Hypertrophy, hepatocellular, panlobular; number with observation (cynomolgus monkeys; 150 mg/kg/day M, 3 examined) | Thymus: Depletion, lymphoid, cortex; number with observation (cynomolgus monkeys; 150 mg/kg/day M, 3 examined) | Liver: Hypertrophy, hepatocellular, panlobular, mild; number with observation (cynomolgus monkeys; 400/300 mg/kg/day F) | Thymus: Depletion lymphoid, generalized; number with observation (cynomolgus monkeys; 400/300 mg/kg/day F) | Liver: Hypertrophy, hepatocellular, panlobular; number with observation (cynomolgus monkeys; [1]) | Liver: Hypertrophy, hepatocellular, panlobular, mild; number with observation (cynomolgus monkeys; 400/300 mg/kg/day M) | Thymus: Depletion lymphoid, generalized; number with observation (cynomolgus monkeys; 400/300 mg/kg/day M) | Liver: Hypertrophy, hepatocellular, panlobular; number with observation (cynomolgus monkeys; [2])
-0.12 kg: mean cumulative body gain (Days 1-14) (cynomolgus monkeys; 150 mg/kg/day F)
< 1500 nM: IC50 (CYP2C9) | IC50 (CYP2C19)
-0.09 kg: mean cumulative body gain (Days 1-14) (cynomolgus monkeys; 400/300 mg/kg/day F)
-0.23 kg: mean cumulative body gain (Days 1-14) (cynomolgus monkeys; 400/300 mg/kg/day M)
2: Liver: Hypertrophy, hepatocellular, panlobular, mild; number with observation (cynomolgus monkeys; 150 mg/kg/day F) | Thymus: Depletion, lymphoid, cortex, mild; number with observation (cynomolgus monkeys; 150 mg/kg/day F) | Thymus: Depletion, lymphoid, cortex, mild; number with observation (cynomolgus monkeys; 150 mg/kg/day M) | Thymus: Depletion lymphoid, generalized, mild; number with observation (cynomolgus monkeys; 400/300 mg/kg/day F) | Bone marrow, rib: Depletion, mixed; number with observation (cynomolgus monkeys; 400/300 mg/kg/day M) | Bone marrow, sternum: Depletion, mixed; number with observation (cynomolgus monkeys; 400/300 mg/kg/day M) | Thymus: Depletion lymphoid, generalized, moderate; number with observation (cynomolgus monkeys; 400/300 mg/kg/day M) | Bone marrow, femur: Depletion, mixed; number with observation (cynomolgus monkeys; [2])
300 mg/kg: highest non-lethal dose (cynomolgus monkeys; cynomolgus monkey, in vivo)
50 mg/kg/day: NOAEL (cynomolgus monkeys; 14 days)
